Assay results as given in ChEMBL document CHEMBL4602625, “Synthesis, biological evaluation and SAR studies of ursolic acid 3β-ester derivatives as novel CETP inhibitors” (Bioorg Med Chem Lett, 2020).

Legend:
[1] = biological target: T1, Cholesteryl ester transfer protein (Homo sapiens) (UniProt P11597); assay: Inhibition of human CETP at 10 uM relative to control
T1 sequence (whole entry): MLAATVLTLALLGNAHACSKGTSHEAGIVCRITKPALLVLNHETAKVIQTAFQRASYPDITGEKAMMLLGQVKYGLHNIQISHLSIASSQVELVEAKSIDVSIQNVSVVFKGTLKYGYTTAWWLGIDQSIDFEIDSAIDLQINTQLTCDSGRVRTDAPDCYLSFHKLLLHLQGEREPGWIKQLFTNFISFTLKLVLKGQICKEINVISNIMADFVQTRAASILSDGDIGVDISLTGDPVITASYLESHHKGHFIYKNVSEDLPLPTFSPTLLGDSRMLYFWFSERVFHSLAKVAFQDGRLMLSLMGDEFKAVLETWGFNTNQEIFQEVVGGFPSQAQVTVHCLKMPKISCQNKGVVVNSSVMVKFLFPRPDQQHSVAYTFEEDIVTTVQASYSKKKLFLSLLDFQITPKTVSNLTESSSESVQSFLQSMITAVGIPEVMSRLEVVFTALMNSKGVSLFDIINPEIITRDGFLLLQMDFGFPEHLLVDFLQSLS

[2] = biological target: T2, Cholesteryl ester transfer protein (Homo sapiens, UniProt P11597); assay: Inhibition of human CETP
T2 sequence (P11597 whole entry): T1 sequence (whole entry)

inhibition [1] | IC50 [2] | Structure (SMILES)
55.1% | 3.2 µM | C[C@H]1[C@H](C)CC[C@]2(C(=O)O)CC[C@]3(C)C(=CC[C@@H]4[C@@]5(C)CC[C@H](OC(=O)CCCC(=O)O)C(C)(C)[C@@H]5CC[C@]43C)[C@H]12
24.5% | – | C[C@H]1[C@H](C)CC[C@]2(C(=O)O)CC[C@]3(C)C(=CC[C@@H]4[C@@]5(C)CC[C@H](OC(=O)c6ccc(C(=O)O)cc6)C(C)(C)[C@@H]5CC[C@]43C)[C@H]12
42.8% | 10.9 µM | C[C@H]1[C@H](C)CC[C@]2(C(=O)O)CC[C@]3(C)C(=CC[C@@H]4[C@@]5(C)CC[C@H](OC(=O)CCC(=O)O)C(C)(C)[C@@H]5CC[C@]43C)[C@H]12
61.8% | 3.3 µM | C[C@H]1[C@H](C)CC[C@]2(C(=O)O)CC[C@]3(C)C(=CC[C@@H]4[C@@]5(C)CC[C@H](OC(=O)c6cccc(C(=O)O)c6)C(C)(C)[C@@H]5CC[C@]43C)[C@H]12
11.1% | – | C[C@H]1[C@H](C)CC[C@]2(C(=O)O)CC[C@]3(C)C(=CC[C@@H]4[C@@]5(C)CC[C@H](OC(=O)CCCCCC(=O)O)C(C)(C)[C@@H]5CC[C@]43C)[C@H]12
47.9% | 5.5 µM | C[C@H]1[C@H](C)CC[C@]2(C(=O)O)CC[C@]3(C)C(=CC[C@@H]4[C@@]5(C)CC[C@H](OC(=O)c6ccccc6C(=O)O)C(C)(C)[C@@H]5CC[C@]43C)[C@H]12
11.2% | – | C[C@H]1[C@H](C)CC[C@]2(C(=O)O)CC[C@]3(C)C(=CC[C@@H]4[C@@]5(C)CC[C@H](OC(=O)c6cccnc6)C(C)(C)[C@@H]5CC[C@]43C)[C@H]12
53.2% | 2.4 µM | C[C@H]1[C@H](C)CC[C@]2(C(=O)O)CC[C@]3(C)C(=CC[C@@H]4[C@@]5(C)CC[C@H](OC(=O)C6CC6C(=O)O)C(C)(C)[C@@H]5CC[C@]43C)[C@H]12 (some centres not stated)
23.3% | – | C[C@H]1[C@H](C)CC[C@]2(C(=O)O)CC[C@]3(C)C(=CC[C@@H]4[C@@]5(C)CC[C@H](OC(=O)CCCCC(=O)O)C(C)(C)[C@@H]5CC[C@]43C)[C@H]12
88.4% | – | COc1cc(F)c(C(C)C)cc1-c1ccc(C(F)(F)F)cc1CN1C(=O)O[C@H](c2cc(C(F)(F)F)cc(C(F)(F)F)c2)[C@@H]1C
1.5% | – | C[C@H]1[C@H](C)CC[C@]2(C(=O)O)CC[C@]3(C)C(=CC[C@@H]4[C@@]5(C)CC[C@H](OC(=O)CC6(CC(=O)O)CCCCC6)C(C)(C)[C@@H]5CC[C@]43C)[C@H]12
9% | – | C[C@H]1[C@H](C)CC[C@]2(C(=O)O)CC[C@]3(C)C(=CC[C@@H]4[C@@]5(C)CC[C@H](OC(=O)C6C(C(=O)O)C6(C)C)C(C)(C)[C@@H]5CC[C@]43C)[C@H]12 (some centres not stated)
0% | – | C[C@H]1[C@H](C)CC[C@]2(C(=O)O)CC[C@]3(C)C(=CC[C@@H]4[C@@]5(C)CC[C@H](OC(=O)CC6(CC(=O)O)CCCC6)C(C)(C)[C@@H]5CC[C@]43C)[C@H]12
– | > 50 µM | C[C@H]1[C@H](C)CC[C@]2(C(=O)O)CC[C@]3(C)C(=CC[C@@H]4[C@@]5(C)CC[C@H](O)C(C)(C)[C@@H]5CC[C@]43C)[C@H]12 [URSOLIC ACID]
0% | – | C[C@H]1[C@H](C)CC[C@]2(C(=O)O)CC[C@]3(C)C(=CC[C@@H]4[C@@]5(C)CC[C@H](OC(=O)CC(C)(C)CC(=O)O)C(C)(C)[C@@H]5CC[C@]43C)[C@H]12
1.1% | – | CC(CC(=O)O)CC(=O)O[C@H]1CC[C@]2(C)[C@H]3CC=C4[C@@H]5[C@@H](C)[C@H](C)CC[C@]5(C(=O)O)CC[C@@]4(C)[C@]3(C)CC[C@H]2C1(C)C (some centres not stated)
22.7% | – | C[C@H]1[C@H](C)CC[C@]2(C(=O)O)CC[C@]3(C)C(=CC[C@@H]4[C@@]5(C)CC[C@H](OC(=O)c6ccccc6)C(C)(C)[C@@H]5CC[C@]43C)[C@H]12
